# Source: patent US12539311B2, “Short-acting heparin-based anticoagulant compounds and methods” (The University of North Carolina at Chapel Hill, priority 2017, dated 2026)
# Like-named read-outs stand apart in the source and are kept apart here.
# Legend:
# antithrombin (AT) [1] = target: T1, antithrombin (AT) (Homo sapiens, UniProt P01008); assay: AT-binding affinity analysis using isothermal titration calorimetry (ITC)
# FXa = assay: Determination of anti-FXa effect in vivo; set-up: species or system Lewis rats; details: rat, intravenous; for persistence of anti-FXa effect in vivo: blood drawn 0.5-8 hours
# Method: (§1) All studies were performed under an Institutional Animal Care and Use Committee (IACUC)-approved protocol at the University of North Carolina, following Public Health Service guidelines for laboratory animal care and use. Sixteen 400-g Lewis rats were equally divided into four groups. […] Blood was then drawn at specified time points (0.5, 1, 2, 4, 8 hours) after the compounds had been administered, with one sample taken just before administration. 0.8 mL of blood was drawn from the contralateral femoral/saphenous vein into 150 mM citrate at 0.5, 1, 2, 4 and 8 hours following injection of the compounds, with one sample drawn immediately prior to injection. The samples were centrifuged to obtain approximately 400 μL of plasma. The blood samples were subjected to FXa activity analysis. Saline was given periodically subcutaneously to maintain fluid volume.
# platelet factor 4 = target: T2, platelet factor 4 (Homo sapiens, UniProt P02776); assay: Risk of heparin-induced thrombocytopenia (HIT) / binding to platelet factor 4; details: expected from size (smaller than 12-mers do not bind platelet factor 4)
# T2 sequence (P02776 32-101): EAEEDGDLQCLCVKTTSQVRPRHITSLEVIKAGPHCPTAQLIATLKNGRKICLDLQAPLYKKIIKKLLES
# [2] = Clearance of oligosaccharides from the drug-treated animals (plasma concentration against time); type: in vivo, Lewis rats
# Method: as §1
# Using a calibration curve generated for each compound, the concentration of compound in the reaction mixture was read off for each corresponding FXa activity percentage. The average plasma concentration and standard deviation between the 4 rats in each group were calculated for each time point; these values were used to plot a graph of plasma concentration against time.
# antithrombin (AT) [3] = target: T1, antithrombin (AT); details: affinity coelectrophoresis, reported in a previous publication; read-out: Binding affinity (Kd) to AT; cited from earlier work
# antithrombin (AT) [4] = target: T1, antithrombin (AT); details: reported in a previous publication, method not given, cited from earlier work
# T1 sequence (P01008 33-464): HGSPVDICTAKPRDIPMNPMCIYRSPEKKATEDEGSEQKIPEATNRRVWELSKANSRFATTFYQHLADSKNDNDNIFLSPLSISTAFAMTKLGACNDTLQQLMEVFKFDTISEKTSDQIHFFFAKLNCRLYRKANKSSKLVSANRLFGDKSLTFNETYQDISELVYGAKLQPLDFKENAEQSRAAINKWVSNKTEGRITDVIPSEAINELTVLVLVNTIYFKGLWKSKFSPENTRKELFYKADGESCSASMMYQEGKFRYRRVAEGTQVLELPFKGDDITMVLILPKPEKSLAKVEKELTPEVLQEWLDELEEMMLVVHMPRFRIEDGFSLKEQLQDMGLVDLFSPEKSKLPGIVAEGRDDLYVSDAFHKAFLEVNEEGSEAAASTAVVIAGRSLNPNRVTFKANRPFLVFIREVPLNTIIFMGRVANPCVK
smiles,measurement,setting,value
"O=C(O)C1OC(OC2C(COS(=O)(=O)O)OC(OC3C(C(=O)O)OC(OC4C(COS(=O)(=O)O)OC(OC5C(C(=O)O)OC(Oc6ccc([N+](=O)[O-])cc6)C(O)C5O)C(NS(=O)(=O)O)C4OS(=O)(=O)O)C(OS(=O)(=O)O)C3O)C(NS(=O)(=O)O)C2O)C(O)C(O)C1OC1OC(COS(=O)(=O)O)C(O)C(O)C1NS(=O)(=O)O (centres unmarked) [Comp 2, GlcNS6S-GlcA-GlcNS6S-IdoA2S-GlcNS3S6S-GlcA-pNP]",Binding affinity (Kd) to AT,antithrombin (AT) [1]; ITC,No binding
O=C(O)C1OC(OC2C(CO)OC(OC3C(C(=O)O)OC(OC4C(CO)OC(OC5C(C(=O)O)OC(OC6C(CO)OC(OC7C(C(=O)O)OC(Oc8ccc([N+](=O)[O-])cc8)C(O)C7O)C(NS(=O)(=O)O)C6O)C(OS(=O)(=O)O)C5O)C(NS(=O)(=O)O)C4OS(=O)(=O)O)C(OS(=O)(=O)O)C3O)C(NS(=O)(=O)O)C2O)C(O)C(O)C1OC1OC(CO)C(O)C(O)C1NS(=O)(=O)O (centres unmarked) [Comp 4],Binding affinity (Kd) to AT,antithrombin (AT) [1]; ITC,No binding^c
O=C(O)C1OC(OC2C(COS(=O)(=O)O)OC(OC3C(C(=O)O)OC(OC4C(COS(=O)(=O)O)OC(OC5C(C(=O)O)OC(OC6C(COS(=O)(=O)O)OC(OC7C(C(=O)O)OC(Oc8ccc([N+](=O)[O-])cc8)C(O)C7O)C(NS(=O)(=O)O)C6O)C(OS(=O)(=O)O)C5O)C(NS(=O)(=O)O)C4OS(=O)(=O)O)C(OS(=O)(=O)O)C3O)C(NS(=O)(=O)O)C2O)C(O)C(O)C1OC1OC(COS(=O)(=O)O)C(O)C(O)C1NS(=O)(=O)O (centres unmarked) [Comp 5],persistence of anti-FXa effect in vivo,FXa,diminished after 4 hours
same,anti-FXa potency in vivo,FXa; within 30 min after administration,comparable anti-FXa potency to that of fondaparinux and compound 11
same,risk of HIT,platelet factor 4,very low risk of HIT
same,clearance rate faster than that of fondaparinux,[2]; in a rat or mouse model,at least 50%
same,clearance in vivo (in words),"[2]; rat, compared with fondaparinux and compound 11",cleared faster from the animal in the first 2 hours
same,Kd,antithrombin (AT) [1]; ITC,5.1 ± 1.4 nM
same,binding to AT (in words),antithrombin (AT) [1]; listed as Compound 5,binds to AT
same,binding to AT (in words),antithrombin (AT) [1]; listed as compound 5,binds to AT tightly
"CC(=O)NC1C(OC2C(C(=O)O)OC(OC3C(COS(=O)(=O)O)OC(OC4C(C(=O)O)OC(OC5C(COS(=O)(=O)O)OC(OC6C(C(=O)O)OC(OC7C(COS(=O)(=O)O)OC(OC8C(C(=O)O)OC(Oc9ccc([N+](=O)[O-])cc9)C(O)C8O)C(NS(=O)(=O)O)C7O)C(OS(=O)(=O)O)C6O)C(NS(=O)(=O)O)C5O)C(OS(=O)(=O)O)C4O)C(NS(=O)(=O)O)C3OS(=O)(=O)O)C(O)C2O)OC(COS(=O)(=O)O)C(O)C1O (centres unmarked) [Comp 11, reference compound]",persistence of anti-FXa effect in vivo,FXa,persisted after 8 hours
same,Kd,antithrombin (AT) [3],8 ± 3 nM
"O=C(O)C1OC(OC2C(COS(=O)(=O)O)OC(OC3C(C(=O)O)OC(OC4C(COS(=O)(=O)O)OC(OC5C(C(=O)O)OC(Oc6ccc([N+](=O)[O-])cc6)C(O)C5O)C(NS(=O)(=O)O)C4O)C(OS(=O)(=O)O)C3O)C(NS(=O)(=O)O)C2OS(=O)(=O)O)C(O)C(O)C1OC1OC(COS(=O)(=O)O)C(O)C(O)C1NS(=O)(=O)O (centres unmarked) [GlcA2S-containing 6-mer, GlcNS6S-GlcA-GlcNS3S6S-GlcA2S-GlcNS6S-GlcA-pNP]",Binding affinity (Kd) to AT,antithrombin (AT) [4],No binding^d
O=C(O)C1OC(OC2C(COS(=O)(=O)O)OC(OC3C(C(=O)O)OC(OC4C(COS(=O)(=O)O)OC(OC5C(C(=O)O)OC(Oc6ccc([N+](=O)[O-])cc6)C(O)C5O)C(NS(=O)(=O)O)C4O)C(O)C3O)C(NS(=O)(=O)O)C2OS(=O)(=O)O)C(O)C(O)C1OC1OC(COS(=O)(=O)O)C(O)C(O)C1NS(=O)(=O)O (centres unmarked) [IdoA-containing 6-mer],Kd,antithrombin (AT) [4]; read-out: Binding affinity (Kd) to AT,32.6 ± 5.3 nM
